# According to US20130317055A1, “NEURONAL NICOTINIC AGONIST AND METHODS OF USE” (ABBVIE INC., priority 2012, published 2013):
# Test system: clinically stable subjects with schizophrenia
# Assay: Clinical Study A (Phase 2a, placebo-controlled): MATRICS Consensus Cognitive Battery (MCCB)
# Type: in vivo, human
# Details: for MCCB Reasoning and Problem Solving: Difference from Placebo LS Mean (SE) of Difference / MCCB Reasoning and Problem Solving: LS Mean (SE) of Change from Baseline / MCCB Reasoning and Problem Solving: Observed Mean (SD) of change from baseline / MCCB Attention/Vigilance: Difference from Placebo LS Mean (SE) of Difference / MCCB Attention/Vigilance: LS Mean (SE) of Change from Baseline / MCCB Attention/Vigilance: Observed Mean (SD) of change from baseline / MCCB Social Cognition: Difference from Placebo LS Mean (SE) of Difference / MCCB Social Cognition: LS Mean (SE) of Change from Baseline / MCCB Social Cognition: Observed Mean (SD) of change from baseline / MCCB Speed of Processing: Difference from Placebo LS Mean (SE) of Difference / MCCB Speed of Processing: LS Mean (SE) of Change from Baseline / MCCB Speed of Processing: Observed Mean (SD) of change from baseline / MCCB Verbal Learning: Difference from Placebo LS Mean (SE) of Difference / MCCB Verbal Learning: LS Mean (SE) of Change from Baseline / MCCB Verbal Learning: Observed Mean (SD) of change from baseline / MCCB Visual Learning: Difference from Placebo LS Mean (SE) of Difference / MCCB Visual Learning: LS Mean (SE) of Change from Baseline / MCCB Visual Learning: Observed Mean (SD) of change from baseline / MCCB Working Memory: Difference from Placebo LS Mean (SE) of Difference / MCCB Working Memory: LS Mean (SE) of Change from Baseline / MCCB Working Memory: Observed Mean (SD) of change from baseline: ITT
# From the text: A Phase 2a proof-of-concept (POC) study in clinically stable subjects with schizophrenia who were clinically stable and received stable doses of atypical antipsychotic therapy. The study was a Phase 2, multi-center, randomized, double-blind, placebo-controlled, parallel group study designed to evaluate the safety and efficacy of doses of (4s)-4-(5-phenyl-1,3,4-thiadiazol-2-yloxy)-1-azatricyclo[3.3.1.1^3,7]decane (Compound A) in clinically stable male and female subjects (ages 20 to 55, inclusive) with a Diagnostic and Statistical Manual of Mental Disorders Fourth Edition, Text Revision (DSM-IV-TR) diagnosis of schizophrenia. Psychiatric diagnoses were confirmed using the Mini-International Neuropsychiatric Interview (MINI) version 6.0.0. The criteria for clinical stability was determined by a combination of retrospective data (over the 4 months prior to the start of Screening, which will be supported by clinical records, patient, identified responsible contact person, and physician interviews), and prospective data assessed during the Prospective Stabilization Period of 28 to 42 days duration.
# The study was a Phase 2, multi-center, randomized, double-blind, placebo-controlled, parallel group study designed to evaluate the safety and efficacy of doses of (4s)-4-(5-phenyl-1,3,4-thiadiazol-2-yloxy)-1-azatrieyclo[3.3.1.1^3,7]decane, which is also recognized as Compound A, in treating cognitive deficits in subjects with schizophrenia who were clinically stable and receiving one or two atypical antipsychotic medications. Study drug was administered orally.
# The study consisted of a screening period of at least 28 and up to 42 days, a 84-day outpatient treatment period, a 14-day post-treatment period, and a post-treatment follow-up period. The screening period consisted of three visits: Screening Visit 1, Screening Visit 2, and Day −1. Upon completion of Day −1 procedures, eligible subjects were randomized through an Interactive Voice Response/Interactive Web-Based (IVR/IWB) system. Subjects were randomized in an equal ratio to one of three treatment groups (placebo, 10 mg Compound A, or 25 mg Compound A).
# Subjects were randomized in a 1:1:1 ratio with placebo, 10 mg QD Compound A, of 25 mg Compound A. Each subject was instructed to take study drug once-daily in the morning for 12 weeks. Each daily dose was preferably taken with food. The subject and investigator were blinded to the treatment assignment throughout the study. The treatment assignments for the study subjects are shown below in Table 1.
# The primary endpoint was the MCCB composite score, and the primary endpoint analysis was the change on the MCCB composite score from baseline to endpoint versus placebo. Other secondary measures included the MCCB domains, the NSA-16, the CANTAB cognition battery (measured at different time points from the MCCB), and the UPSA-2. The Positive and Negative Syndrome Scale (PANSS) was included to document stability in schizophrenia symptomatology.
# The MCCB was developed by a consortium of academic, industry, the Food and Drug Administration (FDA) and National Institute of Mental Health ([…]) members called Measurement and Treatment Research to Improve Cognition in Schizophrenia (MATRICS). The battery was established in a multiple phase process that involved experts identifying cognitive tests in the literature that had shown deficits in schizophrenia, use of factor analysis to identify key domains of cognitive deficits in schizophrenia, and then empirically identifying the best tests for each domain based on reliability, validity and feasibility for use in clinical trials. The FDA has endorsed the MCCB as an appropriate outcome measure for Phase 3 CDS trials. […]
compound,measurement,setting,value
"c1ccc(-c2nnc(O[C@@H]3C4CC5C[C@H]3C[N@](C5)C4)s2)cc1 [Compound A, (4s)-4-(5-phenyl-1,3,4-thiadiazol-2-yloxy)-1-azatricyclo[3.3.1.1^3,7]decane]",MCCB Reasoning and Problem Solving: Difference from Placebo LS Mean (SE) of Difference,"10 mg QD, Change to Week 2",1.24 (1.18) T-score
same,MCCB Reasoning and Problem Solving: LS Mean (SE) of Change from Baseline,"10 mg QD, Change to Week 2",1.99 (0.84) T-score
same,MCCB Reasoning and Problem Solving: Observed Mean (SD) of change from baseline,"10 mg QD, Change to Week 2",1.70 (6.03) T-score
same,MCCB Attention/Vigilance: Difference from Placebo LS Mean (SE) of Difference,"10 mg QD, Change to Week 6",1.29 (1.35) T-score
same,MCCB Attention/Vigilance: LS Mean (SE) of Change from Baseline,"10 mg QD, Change to Week 6",0.49 (0.98) T-score
same,MCCB Attention/Vigilance: Observed Mean (SD) of change from baseline,"10 mg QD, Change to Week 6",0.83 (7.62) T-score
same,MCCB Reasoning and Problem Solving: Difference from Placebo LS Mean (SE) of Difference,"10 mg QD, Change to Week 6",0.53 (1.03) T-score
same,MCCB Reasoning and Problem Solving: LS Mean (SE) of Change from Baseline,"10 mg QD, Change to Week 6",0.49 (0.75) T-score
same,MCCB Reasoning and Problem Solving: Observed Mean (SD) of change from baseline,"10 mg QD, Change to Week 6",0.08 (5.57) T-score
same,MCCB Social Cognition: Difference from Placebo LS Mean (SE) of Difference,"10 mg QD, Change to Week 6",−0.46 (1.34) T-score
same,MCCB Social Cognition: LS Mean (SE) of Change from Baseline,"10 mg QD, Change to Week 6",1.04 (0.97) T-score
same,MCCB Social Cognition: Observed Mean (SD) of change from baseline,"10 mg QD, Change to Week 6",1.14 (7.87) T-score
same,MCCB Speed of Processing: Difference from Placebo LS Mean (SE) of Difference,"10 mg QD, Change to Week 6",0.74 (1.04) T-score
same,MCCB Speed of Processing: LS Mean (SE) of Change from Baseline,"10 mg QD, Change to Week 6",1.13 (0.74) T-score
same,MCCB Speed of Processing: Observed Mean (SD) of change from baseline,"10 mg QD, Change to Week 6",1.00 (5.49) T-score
same,MCCB Verbal Learning: Difference from Placebo LS Mean (SE) of Difference,"10 mg QD, Change to Week 6",0.24 (1.12) T-score
same,MCCB Verbal Learning: LS Mean (SE) of Change from Baseline,"10 mg QD, Change to Week 6",0.31 (0.82) T-score
same,MCCB Verbal Learning: Observed Mean (SD) of change from baseline,"10 mg QD, Change to Week 6",0.68 (7.99) T-score
same,MCCB Visual Learning: Difference from Placebo LS Mean (SE) of Difference,"10 mg QD, Change to Week 6",1.74 (1.57) T-score
same,MCCB Visual Learning: LS Mean (SE) of Change from Baseline,"10 mg QD, Change to Week 6",1.59 (1.13) T-score
same,MCCB Visual Learning: Observed Mean (SD) of change from baseline,"10 mg QD, Change to Week 6",1.35 (9.36) T-score
same,MCCB Working Memory: Difference from Placebo LS Mean (SE) of Difference,"10 mg QD, Change to Week 6",0.86 (1.03) T-score
same,MCCB Working Memory: LS Mean (SE) of Change from Baseline,"10 mg QD, Change to Week 6",0.35 (0.75) T-score
same,MCCB Working Memory: Observed Mean (SD) of change from baseline,"10 mg QD, Change to Week 6",0.27 (5.15) T-score
same,MCCB Attention/Vigilance: Difference from Placebo LS Mean (SE) of Difference,"10 mg QD, Change to Week 12",2.63 (1.49) T-score
same,MCCB Attention/Vigilance: LS Mean (SE) of Change from Baseline,"10 mg QD, Change to Week 12",0.64 (1.06) T-score
same,MCCB Attention/Vigilance: Observed Mean (SD) of change from baseline,"10 mg QD, Change to Week 12",1.15 (8.46) T-score
same,MCCB Social Cognition: Difference from Placebo LS Mean (SE) of Difference,"10 mg QD, Change to Week 12",0.40 (1.52) T-score
same,MCCB Social Cognition: LS Mean (SE) of Change from Baseline,"10 mg QD, Change to Week 12",0.99 (1.08) T-score
same,MCCB Social Cognition: Observed Mean (SD) of change from baseline,"10 mg QD, Change to Week 12",1.38 (6.51) T-score
same,MCCB Speed of Processing: Difference from Placebo LS Mean (SE) of Difference,"10 mg QD, Change to Week 12",1.08 (1.20) T-score
same,MCCB Speed of Processing: LS Mean (SE) of Change from Baseline,"10 mg QD, Change to Week 12",2.36 (0.85) T-score
same,MCCB Speed of Processing: Observed Mean (SD) of change from baseline,"10 mg QD, Change to Week 12",2.33 (6.05) T-score
same,MCCB Verbal Learning: Difference from Placebo LS Mean (SE) of Difference,"10 mg QD, Change to Week 12",0.61 (1.10) T-score
same,MCCB Verbal Learning: LS Mean (SE) of Change from Baseline,"10 mg QD, Change to Week 12",1.08 (0.79) T-score
same,MCCB Verbal Learning: Observed Mean (SD) of change from baseline,"10 mg QD, Change to Week 12",1.28 (7.06) T-score
same,MCCB Visual Learning: Difference from Placebo LS Mean (SE) of Difference,"10 mg QD, Change to Week 12",0.73 (1.59) T-score
same,MCCB Visual Learning: LS Mean (SE) of Change from Baseline,"10 mg QD, Change to Week 12",0.29 (1.12) T-score
same,MCCB Visual Learning: Observed Mean (SD) of change from baseline,"10 mg QD, Change to Week 12",0.05 (8.06) T-score
same,MCCB Working Memory: Difference from Placebo LS Mean (SE) of Difference,"10 mg QD, Change to Week 12",0.80 (1.18) T-score
same,MCCB Working Memory: LS Mean (SE) of Change from Baseline,"10 mg QD, Change to Week 12",0.92 (0.84) T-score
same,MCCB Working Memory: Observed Mean (SD) of change from baseline,"10 mg QD, Change to Week 12",0.83 (7.04) T-score
same,MCCB domains with dose response relationship,"10 mg and 25 mg, exception reasoning",6 of the 7 domains
same,MCCB composite score: LS mean change from baseline,"10 mg, baseline to Week 6, MNIRIVI analysis, placebo LS mean +0.49",+1.25
same,MCCB Reasoning and Problem Solving: Difference from Placebo LS Mean (SE) of Difference,"25 mg QD, Change to Week 2",1.20 (1.24) T-score
